Experimental data reported in patent US10619210B2, “Predicting response to epigenetic drug therapy” (THE JOHNS HOPKINS UNIVERSITY, priority 2014, dated 2020).

What was measured:
Type in all cases: cell-based, human
[1] = system: colon cancer cell lines; assay: AIM gene expression in colon cancer cell lines after TSA; conditions: six colon cancer cell lines, 300 nM TSA for 18 hours
Procedure: (§1) FIG. 9A-9D. AIM genes are induced by TSA but not by chemotherapeutic agents. […] FIG. 9B: Box plots of AIM genes after TSA treatment. FIG. 9C: Box plots of AIM genes in DKO cells compared to the parent HCT116 cell line. The orange lines indicate 2 fold change. FIG. 9D: A2780 ovarian cancer cells were treated with 500 nM AZA or carboplatin for 72 hours, then allowed to recover for 7 days without drug before RNA was isolated. qRT-PCR was performed for IFI27, IL-15, IRF7, and MAGEB2 genes. Blue bars indicate Mock treatment, purple indicate AZA, and orange indicate carboplatin. Fold change is plotted on the Y axis. Each bar represents the average and standard deviation of three biological replicates.
It is especially noteworthy that the DKO cell line (haplo-insufficient for DNMT1 and null for DNMT3B), which is shown as a genetic mimic of AZA treatment (FIG. 2B, FIG. 7) induces significant upregulation for most AIM genes (FIG. 9A, C). To determine whether this was specific to DNMT inhibitors, we also treated cells with an HDAC inhibitor (TSA) that has been used extensively in our laboratory. […] This activation appears to be in response to epigenetic agents and not the result of a general cell stress response that could be elicited by chemotherapeutics such as carboplatin.

[2] = system: A2780 ovarian cancer cells; assay: qRT-PCR of AIM genes in A2780 after AZA or carboplatin; conditions: 500 nM for 72 hours, then 7 days recovery without drug
Procedure: as §1, with “replicates. […]” for “replicates.”
After total cellular RNA was extracted using the Trizol method (Life Technologies, Carlsbad, Calif.), RNA concentration was determined using the Nanodrop machine and software (Thermo Fisher Scientific, Rockville, Md.). 1 μg total RNA was used to generate cDNA with the QuantiTect Reverse Transcription Kit (Qiagen, Venlo, Netherlands). Quantitative reverse transcription PCR (q-RT-PCR) of CD274, DDX58, HLA-C, IFI6, IFI27, IL-15, IRF7, IRF9, MAEL, and MAGEB2 mRNA was performed using TaqMan assays (Life Technologies, Carlsbad, Calif.) and the Applied Biosystems 7500 Fast real-time PCR system and software. […]

[3] = system: breast cancer cell lines; assay: AZA-induced immune gene demethylation and re-expression, breast cancer cell lines
Text: (§2) The canonical effects of AZA have traditionally been described as demethylation of promoter regions and subsequent expression of the silenced gene. Many of the pathway changes in response to AZA, such as increased expression of immune genes, may be the result of downstream events elicited by a small number of hubs related to promoter DNA demethylation and associated gene upregulation. We investigated hub networks in our current pan-cancer analyses by first searching, in a genome-wide analysis using the Infinium 450K methylation platform, for genes that have AZA-induced demethylation of cancer-specific, DNA hypermethylated, CpG islands associated with proximal promoter regions. The total number of such demethylated genes in the cell lines from breast, ovarian and colorectal cancers was 162 (FIG. 8A). […]
(§3) All data were analyzed using R: A Language and Environment for Statistical Computing. […] These normalized values were then analyzed utilizing the Gene Set Enrichment Analysis by the Broad Institute and data packages (C5BP, Reactome, KEGG). […] TCGA HumanMethylation27K level 3 data was downloaded, standard deviation of Infinium β-values across all primary cancer samples were calculated, and the top one thousand most variable probes were chosen for hierarchical cluster analysis. […]

[4] = system: 63 cancer cell lines (26 breast, 14 colorectal, and 23 ovarian); assay: GSEA gene sets common to 63 cancer cell lines (breast, colorectal, ovarian) after AZA
Procedure: (§4) In the context of the above background, we explored further our understanding of the global pathway changes after treatment with low doses of the DNMTi AZA in cell lines from multiple common human cancers. A total of 63 cancer cell lines (26 breast, 14 colorectal, and 23 ovarian) were treated with low dose, 500 nM, AZA for three days. DNA and RNA were isolated at multiple time points following initial drug application and analyzed for genome-wide changes in DNA methylation and gene expression (Agilent 44K Expression Array). […] These gene sets could be broadly divided into four categories including cell cycle control (cell cycle, mitosis, meiosis), DNA replication (DNA replication and packaging, transcription), mRNA splicing and translation, and immune response (FIG. 1C,D; Tables 2 and 3). […] See also FIG. 1A. […] See also FIG. 1B.
63 cell lines (26 breast cancer, 14 colorectal cancer, 23 ovarian cancer) were used in these experiments. Breast cell lines included BT20, BT474, CAMA1, EFM19, MDA453, MDA468, MDA361, MCF7, MDA231, T47D, HCC1500, and HCC1187 obtained from the American Type Tissue Collection; HCC1419, HCC38, EFM192A, HCC1569, HCC1937, HCC1954, MDA175, MDA415, MDA436, SUM149, SUM159, SKBR3, ZR751, and ZR7530 from Dr. Dennis Slamon. All cells were maintained under recommended conditions. Colorectal cell lines were all obtained from the American Type Tissue Collection and were maintained under recommended conditions. These included CACO-2, Colo201, Colo205, Colo320, DLD1, HCT116, HT29, Lovo, RKO, SK-CO1, SNUC-1, SW48, SW480, and SW620. Ovarian cell lines were obtained from the laboratory of Dr. Dennis Slamon and included A2780, CAOV3, DOV13, EFO27, ES2, Hey, HEYC2, Kuramochi, OAW28, OAW42, OV167, OV2008, OV90, OVCA429, OVCA432, OVMANA, OVCAR3, OVCAR5, OVKATE, PEO14, SKOV3, TOV112D, and TykNu; these were maintained under the ATCC recommended conditions.
Cell lines were treated with 500 nM of AZA or carboplatin (Sigma; St. Louis, Mo.) for 72 hours while in log-growth phase, changing the media and drug every 24 hours for AZA treatment. To select an appropriate chemotherapy control, the carboplatin dose that had the similar growth inhibitory effect to 500 nM AZA after 10 days was selected. Cells were harvested at 1, 3, 7, 10, 14, 21, or 28 days following initial application of drug. […]
as §3

[5] = system: cell lines from breast, ovarian and colorectal cancers; assay: AZA-induced promoter CpG island demethylation and re-expression (Infinium 450K), all three cancer types
Text: The canonical effects of AZA have traditionally been described as demethylation of promoter regions and subsequent expression of the silenced gene. Many of the pathway changes in response to AZA, such as increased expression of immune genes, may be the result of downstream events elicited by a small number of hubs related to promoter DNA demethylation and associated gene upregulation. We investigated hub networks in our current pan-cancer analyses by first searching, in a genome-wide analysis using the Infinium 450K methylation platform, for genes that have AZA-induced demethylation of cancer-specific, DNA hypermethylated, CpG islands associated with proximal promoter regions. The total number of such demethylated genes in the cell lines from breast, ovarian and colorectal cancers was 162 (FIG. 8A). […] The highest percentages of these demethylation and re-expression events were again seen in immune genes; 26%, of the 162 genes were categorized as immune related (FIG. 8B,C). Overall, immune gene demethylation and re-expression was again highest in ovarian cancer cell lines (53.8%) followed by colorectal (42.8%) and breast (30.7%) cancer cell lines (FIG. 8B). Of note, amongst these 162 genes, 8 (4.9%) were also in our AIM gene set (BNIP3, HERC5, ICAM1, IRF7, MX1, MST1R, PSMB8, TCRIG1) with IRF7, a member of the interferon regulatory factor family of transcription factors in particular being notable for being a canonical demethylated and reexpressed gene.
Cell lines were treated with 500 nM of AZA or carboplatin (Sigma; St. Louis, Mo.) for 72 hours while in log-growth phase, changing the media and drug every 24 hours for AZA treatment. To select an appropriate chemotherapy control, the carboplatin dose that had the similar growth inhibitory effect to 500 nM AZA after 10 days was selected. Cells were harvested at 1, 3, 7, 10, 14, 21, or 28 days following initial application of drug. DNA and RNA were obtained using standard protocols. RNA from 63 cell lines was sent for the Agilent 44K Expression Array and DNA from 53 cell lines was sent for the Illumina 450K Methylation Array.
All data were analyzed using R: A Language and Environment for Statistical Computing. Expression normalization of cell line data was performed using the package Limma as previously described. Data was normalized within each tumor type (breast, colorectal, and ovarian). These normalized values were then analyzed utilizing the Gene Set Enrichment Analysis by the Broad Institute and data packages (C5BP, Reactome, KEGG). […] TCGA HumanMethylation27K level 3 data was downloaded, standard deviation of Infinium β-values across all primary cancer samples were calculated, and the top one thousand most variable probes were chosen for hierarchical cluster analysis. […]

[6] = system: lung cancer cell lines; assay: GSEA of lung cancer cell lines treated with the same AZA dosing schedule; conditions: 14 lung cancer cell lines
[7] = system: colorectal cancer cell lines; assay: GSEA of Agilent 44K expression arrays after low-dose AZA, colorectal cancer cell lines
Procedure: as §4, with “1B. […]” for “1B.”
as §3

[8] = system: ovarian cancer cell lines; assay: GSEA of Agilent 44K expression arrays after low-dose AZA, ovarian cancer cell lines
Procedure: as §4, with “1B. […]” for “1B.”
as §3

[9] = system: HCC1569, ZR751, COLO201, HT29, A2780 and TYKNU cells; assay: qRT-PCR validation of AIM genes in two cell lines from each cancer type; conditions: two cell lines per cancer type
Procedure: After total cellular RNA was extracted using the Trizol method (Life Technologies, Carlsbad, Calif.), RNA concentration was determined using the Nanodrop machine and software (Thermo Fisher Scientific, Rockville, Md.). 1 μg total RNA was used to generate cDNA with the QuantiTect Reverse Transcription Kit (Qiagen, Venlo, Netherlands). Quantitative reverse transcription PCR (q-RT-PCR) of CD274, DDX58, HLA-C, IFI6, IFI27, IL-15, IRF7, IRF9, MAEL, and MAGEB2 mRNA was performed using TaqMan assays (Life Technologies, Carlsbad, Calif.) and the Applied Biosystems 7500 Fast real-time PCR system and software. Human β-actin mRNA was used as the endogenous control. The ΔΔCT method was used to calculate relative expression levels. All qRT-PCR assays were carried out in triplicate and then repeated with new cDNA synthesis. Minus RT controls (reverse transcriptase negative cDNA synthesis reactions) were performed for at least one sample per plate.

[10] = system: breast cancer cell lines; assay: GSEA of Agilent 44K expression arrays after low-dose AZA, breast cancer cell lines
Procedure: as §4, with “1B. […]” for “1B.”
as §3

[11] = system: ovarian cancer cell lines; assay: AZA-induced immune gene demethylation and re-expression, ovarian cancer cell lines
Text: as §2, §3

[12] = system: colorectal cancer cell lines; assay: AZA-induced immune gene demethylation and re-expression, colorectal cancer cell lines
Text: as §2, §3

[13] = 500 nM AZA for three days, NES>2.15, FDR<0.25

CC(/C=C/C(=O)NO)=C\[C@@H](C)C(=O)c1ccc(N(C)C)cc1 [TSA]
regulation of AIM genes [1]: regulates subsets of AIM genes but not as uniformly or robustly as DKO cells or AZA treated cells

N.N.O=C([O-])C1(C(=O)[O-])CCC1.[Pt+2] [carboplatin]
expression of AIM genes IFI27, IRF7, IL15, MAGEB2 (qRT-PCR) [2]: does not lead to overexpression

Nc1ncn([C@@H]2O[C@H](CO)[C@@H](O)[C@H]2O)c(=O)n1 [AZA, 5-azacitidine]
immune gene demethylation and re-expression (percent of cell lines) [3]: 30.7% | immune gene sets showing upregulation by AZA (15/16 gene sets) ([4]; 500 nM AZA for three days): 93.7% | downregulated GSEA gene sets common between the three cancer types ([4]; 500 nM AZA for three days, NES<-2.15, FDR<0.25): 52 gene sets | upregulated GSEA gene sets common between the three cancer types [4, 13]: 80 gene sets | enrichment for immunomodulatory pathways in all three cancers ([4]; range over breast, colorectal, ovarian): 14.4-31.3% | share of the 162 demethylated/re-expressed genes categorized as immune related [5]: 26% | subset of the 162 genes showing demethylation and re-expression in all three cancer types [5]: 4.9% | number of the 162 demethylated/re-expressed genes also in AIM gene set ([5]; 8 (4.9%)): 8 genes | total number of demethylated (and re-expressed) genes ([5]; basal β ≥0.5, Δβ(AZA-Mock)≤-0.25, >2-fold expression): 162 genes | gene sets common to breast, colon, and ovarian cell lines also upregulated in the lung cancer cell lines (76/80) [6]: 95% | significantly upregulated pathways that were immune related [6]: 23.3% | Overall immune pathway upregulation (percent of upregulated GSEA gene sets that are immune-related) [7, 13]: 14.4% | upregulation of cancer testis antigens gene set (percent of cell lines) ([7]; GSEA NES>2.15, FDR<0.25): 64.3% | expression of AIM genes IFI27, IRF7, IL15, MAGEB2 (qRT-PCR) [2]: increased | Overall immune pathway upregulation (percent of upregulated GSEA gene sets that are immune-related) ([8]; ovarian cancers, 500 nM AZA for three days, NES>2.15, FDR<0.25): 31.3% | upregulation of cancer testis antigens gene set (percent of cell lines) ([8]; ovarian, GSEA NES>2.15, FDR<0.25): 39.1% | qRT-PCR validation of AZA-induced re-expression of selected AIM (interferon response) genes [9]: Each chosen gene validated | qRT-PCR validation of upregulation of selected antigen presentation pathway genes [9]: validated | Overall immune pathway upregulation (percent of upregulated GSEA gene sets that are immune-related) [10, 13]: 16.9% | upregulation of cancer testis antigens gene set (percent of cell lines) ([10]; GSEA NES>2.15, FDR<0.25): 19.2% | immune gene demethylation and re-expression (percent of cell lines) [11]: 53.8% | immune gene demethylation and re-expression (percent of cell lines) [12]: 42.8%
